One data set has as its system human skin. As to the kind of experiment: TEWL recovery after disruption by 60:40 DMSO:water formulation, upper thigh. The format is in vivo. Particulars: 2.0 mM ambroxol in 60:40 (v/v) DMSO:water. Here is the method: 60% DMSO has been reported to be the minimum concentration of DMSO needed to disrupt ceramide-containing lipid bilayers in skin (Notman et al Biophysical Journal 93:2056 [2007]).
All time points were measured in duplicate or triplicate.
Also like in the experiment shown in FIG. 1, there is an enduring improvement of approximately 5 g/m^2-h in the rate of water loss of the ambroxol-treated skin relative to skin treated with the DMSO:water formulation alone. […] Shown for each point are the error bars (standard deviation of duplicate or triplicate measurements); for some points the error bars are less visible because they were smaller than the diameter of the symbol representing that point.]

A further data set relates to skin of volar forearm. As to the kind of experiment: Dose-ranging study of ambroxol on TEWL, 99.9% DMSO, volar forearm. The settings on record: ambroxol concentrations much lower than 2.0 mM (20 micromolar to 2.0 mM tested) in 99.9% DMSO, 10 microliter, 1 hr and 10 hr post-application. The format is in vivo, human. The source says:
Apart from these additional concentrations, conditions and the formulation (99.9% DMSO) were essentially the same as those described in Example 1, except in this experiment 10 microliter aliquots were spread and the skin region tested was on the volar forearm.
The data in FIG. 3 are presented as histograms, with only start points (at 1 hr post-application) and end-points (at 10 hr post application) shown. Two things are notable about this experiment. […] This may reflect the relative delicacy of volar forearm skin compared to skin of the upper thigh, such that the same treatment may be more or less harsh depending on the skin area treated. […] [Symbols: Open rectangles, skin TEWL measured at 1 hr post-application; hatched rectangles, skin TEWL measured at 10 hr post-application; dashed line, average TEWL value (7.8±1.1 g/m^2-hr) of untreated skin from areas adjacent to the treatment sites. All measurements were taken in quadruplicate (n=4) or quintuplicate (n=5). Shown for each value are the error bars (standard deviation of quadruplicate or quintuplicate measurements.]

The subject of the next data set is skin. Particulars: other case reports, positive patch test; cited from earlier work.
The next data set has as its system human (adult male) skin. As to the kind of experiment: TEWL recovery after skin barrier disruption by 99.9% DMSO, upper thigh. The format is in vivo. The settings on record: 2.0 mM ambroxol in 99.9% DMSO. The source says: Dimethyl sulfoxide (DMSO) is a well-known skin permeability enhancer that is thought to act by disrupting ceramide-containing lipid bilayers of the stratum corneum and thereby compromising the permeability barrier of the skin (Agner and Serup, Clin. Expt. Dermatology 14:214 [1989]; Notman et al Biophysical Journal 93:2056 [2007]). Among its many protective functions, this lipid barrier regulates transepidermal water loss (TEWL) and is vital for the prevention of skin dryness in mammals. Thus, it is accepted by researchers in the field, that measurements of TEWL can be used to directly assay the integrity of the skin permeability barrier (Fluhr et al Experimental Dermatology 15:483 [2006]).
All experiments were conducted in a narrow range of relative humidity (30-40%) and at stable room temperatures of 18-22° C.
Transepidermal water loss (TEWL) measurements, in units of g/m^2-h, were taken at various time points after applying the solutions (at t=0) to the skin sites. TEWL values were assessed using a wireless closed-chamber system (VapoMeter, Delphin Technologies Ltd., Kuopio, Finland) that automatically calculates water evaporation rates over a small area (˜1.3 cm^2); each measurement took about 10 s (Fluhr et al Experimental Dermatology 15:483 [2006]). […] All time points were measured in duplicate or triplicate. […] The improvement in TEWL, a difference of 4-6 g/m^2-h between the two curves, then maintains itself over the remaining course of the experiment. […] Shown for each point are the error bars (standard deviation of duplicate or triplicate measurements); for some points the error bars are less visible because they were smaller than the diameter of the symbol representing that point.]

Regarding `Nc1c(Br)cc(Br)cc1CN[C@H]1CC[C@H](O)CC1` [ambroxol, trans-4-(2-amino-3,5-dibromobenzylamino) cyclohexanol], the “time of the burst of TEWL improvement” value in the data set with human skin was “in the first hour post-application”. The “ameliorating the increase in TEWL caused by the DMSO insult” value in the data set with skin of volar forearm was “positive results”. Also, the “adverse skin reaction in case reports” value in the data set with skin is recorded as “systemic contact dermatitis”. In addition, the “improvement in TEWL, difference between ambroxol and control (DMSO only) curves” value in the data set on human (adult male) skin (20 microliter on about 2 cm^2 upper thigh skin, maintained after the burst over the remaining course) is 4-6 g/m^2-h. Besides, in the data set on human (adult male) skin (upper thigh), the “period of the rapid burst of skin barrier healing” value is “approximately 30 minutes” and the “time post-application of sudden drop in TEWL” value was “about 60 minutes”.

The values above are taken from US12390409B2 (NeueRe, LLC, priority 2018, dated 2025).
